Assays:
[1] = target: T1, Sterol O-acyltransferase 1 (Rattus norvegicus, UniProt O70536); test: ChEBML_28484
T1 sequence (O70536 whole entry): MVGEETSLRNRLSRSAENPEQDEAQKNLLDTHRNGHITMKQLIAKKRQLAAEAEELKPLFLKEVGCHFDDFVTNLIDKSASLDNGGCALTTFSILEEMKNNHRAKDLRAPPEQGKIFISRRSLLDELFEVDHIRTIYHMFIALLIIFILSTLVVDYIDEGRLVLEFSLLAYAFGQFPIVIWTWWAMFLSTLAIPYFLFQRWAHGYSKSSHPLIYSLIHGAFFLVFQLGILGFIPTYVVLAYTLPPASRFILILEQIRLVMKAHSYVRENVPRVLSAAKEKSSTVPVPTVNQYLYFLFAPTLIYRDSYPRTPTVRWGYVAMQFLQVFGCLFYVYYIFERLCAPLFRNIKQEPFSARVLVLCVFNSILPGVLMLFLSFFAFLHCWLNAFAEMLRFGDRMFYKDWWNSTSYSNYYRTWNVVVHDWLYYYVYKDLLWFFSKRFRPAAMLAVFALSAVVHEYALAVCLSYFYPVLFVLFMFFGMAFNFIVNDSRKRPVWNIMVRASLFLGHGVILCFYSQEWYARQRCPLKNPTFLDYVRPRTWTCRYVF
Description: (§1) Concentration required for the in vitro inhibition of Acyl coenzyme A:cholesterol acyltransferase (ACAT) in liver microsomes isolated from cholesterol-fed rats was determined

[2] = target: T1, Sterol O-acyltransferase 1; test: as §1

Row | Structure (SMILES) | IC50 [1] [µM] | IC50 [2] [µM]
1 | CCCCCCCC[C@H](SCCCCCC)C(=O)Nc1c(SC)cc[n+](C)c1SC | 0.16 | –
2 | CCCCCCCC[C@@H](SCCCCCC)C(=O)Nc1c(SC)cc[n+](C)c1SC | 0.022 | –
3 | CCCCCCCCCCCCn1nnnc1C(C(=O)Nc1c(OC)cc(OC)cc1OC)c1ccccc1 (configuration not stated) | 0.052 | –
4 | CCCCCCCCCCCCn1nnc(C(C(=O)Nc2c(OC)cc(OC)cc2OC)c2ccccc2)n1 (configuration not stated) [2-(2-Dodecyl-2H-tetrazol-5-yl)-2-phenyl-N-(2,4,6-trimethoxy-phenyl)-acetamide] | 0.014 | 0.024

Further lines, results first:

Row | IC50 [1] [µM] | IC50 [2] [µM] | Structure (SMILES)
5 | 0.079 | – | CCCCCCCCCCCCn1nnnc1C(C(=O)Nc1c(C(C)C)cccc1C(C)C)c1ccccc1 (configuration not stated)
6 | 0.01 | – | CCCCCCCCCCCCn1nnc(C(C(=O)Nc2c(C(C)C)cccc2C(C)C)c2ccccc2)n1 (configuration not stated) [N-(2,6-Diisopropyl-phenyl)-2-(2-dodecyl-2H-tetrazol-5-yl)-2-phenyl-acetamide]

From BindingDB's records for doi:10.7270/Q29Z94WS (Warner-Lambert, 1995)
